Measurements taken from ChEMBL document CHEMBL5154675, “Design, Synthesis, and Biological Evaluation of 1-(Indolizin-3-yl)ethan-1-ones as CBP Bromodomain Inhibitors for the Treatment of Prostate Cancer” (J Med Chem, 2022).

Experiments:
[1] = Apparent permeability across basolateral to apical side in human Caco-2 cells at 10 uM measured after 2 hrs by LC-MS/MS analysis; format: ADME, cell-based
[2] = Apparent permeability across apical to basolateral side in human Caco-2 cells at 10 uM measured after 2 hrs by LC-MS/MS analysis; format: ADME, cell-based
[3] = Apparent permeability across basolateral to apical side in human Caco-2 cells assessed as drug recovery at 10 uM measured after 2 hrs by LC-MS/MS analysis; format: ADME, cell-based; details: read-out: Drug recovery
[4] = Apparent permeability across apical to basolateral side in human Caco-2 cells assessed as drug recovery at 10 uM measured after 2 hrs by LC-MS/MS analysis; format: ADME, cell-based; details: read-out: Drug recovery
[5] = AUC (0 to infinity) in Sprague-Dawley rat at 25 mg/kg, po measured up to 24 hrs; format: ADME, organism-based; design: time < 24 hrs, dose 25 mg/kg, route po; details: in vivo
[6] = target: T1, Bromodomain-containing protein 2 (Homo sapiens, UniProt P25440); details: dose 200.0 µM, time 30.0 min
[7] = AUC (0 to infinity) in Sprague-Dawley rat at 5 mg/kg, iv administered as single dose measured up to 24 hrs; format: ADME, organism-based; design: time < 24 hrs, dose 5 mg/kg, route iv; details: in vivo
CWR22R = experiment: Antiproliferative activity against human 22Rv1 cells assessed as cell growth inhibition by Celltiter-Glo assay; format: functional, cell-based
CREB-binding protein [8] = target: T2, CREB-binding protein (Homo sapiens, UniProt Q92793); experiment: Inhibition of His6-tagged human CBP bromodomain (1081 to 1197 residues) expressed in Escherichia coli BL21 (DE3) incubated for 30 mins by HTRF assay
[9] = target: SWI/SNF-related matrix-associated actin-dependent regulator of chromatin subfamily A member 2 (Homo sapiens) (UniProt P51531); details: dose 200.0 µM, time 30.0 min
[10] = target: T1, Bromodomain-containing protein 2; details: dose 200.0 µM, time 30.0 min; remark: listed apart in the source
[11] = target: T3, Bromodomain-containing protein 3 (Homo sapiens, UniProt Q15059); details: dose 200.0 µM, time 30.0 min
[12] = Cmax in Sprague-Dawley rat at 25 mg/kg, po measured up to 24 hrs; format: ADME, organism-based; design: dose 25 mg/kg, time < 24 hrs, route po; details: in vivo
[13] = target: T3, Bromodomain-containing protein 3; details: dose 200.0 µM, time 30.0 min; remark: listed apart in the source
[14] = target: PH-interacting protein (Homo sapiens) (UniProt Q8WWQ0); details: dose 200.0 µM, time 30.0 min
[15] = Half life in Sprague-Dawley rat at 5 mg/kg, iv administered as single dose measured up to 24 hrs; format: ADME, organism-based; details: in vivo
LNCaP = experiment: Antiproliferative activity against human LNCaP cells assessed as cell growth inhibition by Celltiter-Glo assay; format: functional, cell-based
[16] = Half life in Sprague-Dawley rat at 25 mg/kg, po measured up to 24 hrs; format: ADME, organism-based; details: in vivo
[17] = target: Histone acetyltransferase KAT2B (Homo sapiens) (UniProt Q92831); details: dose 200.0 µM, time 30.0 min
[18] = target: Histone acetyltransferase p300 (Homo sapiens) (UniProt Q09472); details: dose 200.0 µM, time 30.0 min
[19] = Cmax in Sprague-Dawley rat at 5 mg/kg, iv administered as single dose measured up to 24 hrs; format: ADME, organism-based; design: time < 24 hrs, dose 5 mg/kg, route iv; details: in vivo
[20] = target: T4, Bromodomain-containing protein 4 (Homo sapiens, UniProt O60885); details: dose 200.0 µM, time 30.0 min
[21] = target: T5, Bromodomain testis-specific protein (Homo sapiens, UniProt Q58F21); details: dose 200.0 µM, time 30.0 min
[22] = target: Chromatin remodeling regulator CECR2 (Homo sapiens) (UniProt Q9BXF3); details: dose 200.0 µM, time 30.0 min
[23] = Oral bioavailability in Sprague-Dawley rat at 25 mg/kg measured up to 24 hrs; format: ADME, organism-based; details: in vivo
[24] = Clearance in Sprague-Dawley rat at 5 mg/kg, iv administered as single dose measured up to 24 hrs; format: ADME, organism-based; details: Sprague-Dawley, in vivo
[25] = target: T4, Bromodomain-containing protein 4; details: dose 200.0 µM, time 30.0 min; remark: listed apart in the source
LNCaP C4-2B = experiment: Antiproliferative activity against human LNCaP C4-2B cells assessed as inhibition of cell growth by Celltiter-Glo assay; format: functional, cell-based
[26] = target: T5, Bromodomain testis-specific protein; details: dose 200.0 µM, time 30.0 min; remark: listed apart in the source
CREB-binding protein [27] = target: T2, CREB-binding protein; details: dose 200.0 µM, time 30.0 min
[28] = target: Bromodomain adjacent to zinc finger domain protein 2B (Homo sapiens) (UniProt Q9UIF8); details: dose 200.0 µM, time 30.0 min
[29] = target: T6, Bromodomain-containing protein 9 (Homo sapiens) (UniProt Q9H8M2); details: dose 200.0 µM, time 30.0 min
T6 sequence (whole entry): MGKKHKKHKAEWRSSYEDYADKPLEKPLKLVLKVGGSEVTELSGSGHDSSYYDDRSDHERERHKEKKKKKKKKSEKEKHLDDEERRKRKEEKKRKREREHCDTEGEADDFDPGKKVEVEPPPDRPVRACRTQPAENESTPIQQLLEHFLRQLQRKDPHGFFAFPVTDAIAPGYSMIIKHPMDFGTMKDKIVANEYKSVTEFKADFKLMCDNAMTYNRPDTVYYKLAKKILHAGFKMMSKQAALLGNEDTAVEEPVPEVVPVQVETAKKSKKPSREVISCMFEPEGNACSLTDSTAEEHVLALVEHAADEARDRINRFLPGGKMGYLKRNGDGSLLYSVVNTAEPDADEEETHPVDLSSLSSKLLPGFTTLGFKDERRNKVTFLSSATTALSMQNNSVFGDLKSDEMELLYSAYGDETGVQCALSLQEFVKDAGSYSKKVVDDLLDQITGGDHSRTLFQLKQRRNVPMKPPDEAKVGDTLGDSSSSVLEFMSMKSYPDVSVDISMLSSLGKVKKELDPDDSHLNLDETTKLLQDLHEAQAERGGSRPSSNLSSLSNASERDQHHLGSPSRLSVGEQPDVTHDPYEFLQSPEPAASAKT

[30] = Metabolic stability in rat liver microsomes assessed as parent compound remaining at 1 uM incubated for 45 mins in presence of NADPH by LC-MS/MS analysis; format: ADME, Microsome; details: read-out: Stability
[31] = Intrinsic clearance in rat liver microsomes at 1 uM incubated for 45 mins in presence of NADPH by LC-MS/MS analysis; format: ADME, Microsome; details: read-out: CLH
[32] = Half life in human liver microsomes at 1 uM incubated for 45 mins in presence of NADPH by LC-MS/MS analysis; format: ADME, Microsome
[33] = Efflux ratio of apparent permeability across basolateral to apical side over apical to basolateral side in human Caco-2 cells at 10 uM measured after 2 hrs by LC-MS/MS analysis; format: ADME, cell-based
[34] = Intrinsic clearance in human liver microsomes at 1 uM incubated for 45 mins in presence of NADPH by LC-MS/MS analysis; format: ADME, Microsome; details: read-out: CLH
[35] = Hepatic clearance in rat liver microsomes at 1 uM incubated for 45 mins in presence of NADPH by LC-MS/MS analysis; format: ADME, Microsome
[36] = Hepatic extraction ratio in human liver microsomes at 1 uM incubated for 45 mins in presence of NADPH by LC-MS/MS analysis; format: ADME, Microsome; details: read-out: ERH
[37] = Half life in rat liver microsomes at 1 uM incubated for 45 mins in presence of NADPH by LC-MS/MS analysis; format: ADME, Microsome
in vitro = details: rat, liver microsomes
Description: Hepatic extraction ratio in rat liver microsomes at 1 uM incubated for 45 mins in presence of NADPH by LC-MS/MS analysis

[38] = Metabolic stability in human liver microsomes assessed as parent compound remaining at 1 uM incubated for 45 mins in presence of NADPH by LC-MS/MS analysis; format: ADME, Microsome; details: read-out: Stability
[39] = Hepatic clearance in human liver microsomes at 1 uM incubated for 45 mins in presence of NADPH by LC-MS/MS analysis; format: ADME, Microsome; details: read-out: CLH

T1 sequence (P25440 whole entry, looked up): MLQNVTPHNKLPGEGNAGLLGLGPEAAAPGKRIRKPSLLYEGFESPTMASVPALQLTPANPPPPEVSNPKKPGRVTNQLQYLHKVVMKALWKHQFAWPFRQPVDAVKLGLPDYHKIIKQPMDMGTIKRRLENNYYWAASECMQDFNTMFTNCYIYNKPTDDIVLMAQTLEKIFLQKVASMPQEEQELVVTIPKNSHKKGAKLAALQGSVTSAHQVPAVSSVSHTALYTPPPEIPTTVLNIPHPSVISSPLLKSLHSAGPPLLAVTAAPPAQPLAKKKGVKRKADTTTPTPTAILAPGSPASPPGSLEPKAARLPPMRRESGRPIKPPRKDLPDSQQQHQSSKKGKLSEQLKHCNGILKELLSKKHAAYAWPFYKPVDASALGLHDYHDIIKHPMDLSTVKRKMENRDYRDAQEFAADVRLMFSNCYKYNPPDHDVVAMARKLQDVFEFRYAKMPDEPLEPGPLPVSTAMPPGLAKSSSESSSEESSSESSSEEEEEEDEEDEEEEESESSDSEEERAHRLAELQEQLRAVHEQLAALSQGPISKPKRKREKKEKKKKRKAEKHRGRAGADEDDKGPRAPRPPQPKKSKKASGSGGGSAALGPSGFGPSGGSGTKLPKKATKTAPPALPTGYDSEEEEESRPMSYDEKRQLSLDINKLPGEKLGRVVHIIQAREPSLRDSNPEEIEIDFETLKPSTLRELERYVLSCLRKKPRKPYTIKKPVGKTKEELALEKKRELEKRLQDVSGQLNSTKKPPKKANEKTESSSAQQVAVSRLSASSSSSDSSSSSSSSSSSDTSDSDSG
T3 sequence (Q15059 2-726 limits assumed): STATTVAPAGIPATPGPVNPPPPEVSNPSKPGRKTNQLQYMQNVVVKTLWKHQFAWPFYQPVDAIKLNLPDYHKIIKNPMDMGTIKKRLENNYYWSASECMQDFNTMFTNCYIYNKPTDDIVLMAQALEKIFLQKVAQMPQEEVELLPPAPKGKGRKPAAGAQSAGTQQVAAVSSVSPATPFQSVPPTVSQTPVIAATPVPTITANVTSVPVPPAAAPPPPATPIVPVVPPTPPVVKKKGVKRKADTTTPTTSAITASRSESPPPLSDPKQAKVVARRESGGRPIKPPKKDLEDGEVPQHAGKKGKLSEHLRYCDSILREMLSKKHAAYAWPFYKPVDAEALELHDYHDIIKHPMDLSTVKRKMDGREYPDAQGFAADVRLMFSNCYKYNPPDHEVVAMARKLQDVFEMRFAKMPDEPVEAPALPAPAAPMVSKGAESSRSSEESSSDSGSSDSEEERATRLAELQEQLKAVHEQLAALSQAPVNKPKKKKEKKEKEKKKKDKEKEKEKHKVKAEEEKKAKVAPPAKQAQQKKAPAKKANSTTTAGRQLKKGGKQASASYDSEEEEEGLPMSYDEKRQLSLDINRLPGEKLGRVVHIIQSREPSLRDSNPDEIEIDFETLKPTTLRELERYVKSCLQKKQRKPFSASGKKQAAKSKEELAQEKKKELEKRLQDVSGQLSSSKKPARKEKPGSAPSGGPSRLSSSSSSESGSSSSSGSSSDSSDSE
Sequence of Histone acetyltransferase p300 (Homo sapiens) (Q09472 whole entry): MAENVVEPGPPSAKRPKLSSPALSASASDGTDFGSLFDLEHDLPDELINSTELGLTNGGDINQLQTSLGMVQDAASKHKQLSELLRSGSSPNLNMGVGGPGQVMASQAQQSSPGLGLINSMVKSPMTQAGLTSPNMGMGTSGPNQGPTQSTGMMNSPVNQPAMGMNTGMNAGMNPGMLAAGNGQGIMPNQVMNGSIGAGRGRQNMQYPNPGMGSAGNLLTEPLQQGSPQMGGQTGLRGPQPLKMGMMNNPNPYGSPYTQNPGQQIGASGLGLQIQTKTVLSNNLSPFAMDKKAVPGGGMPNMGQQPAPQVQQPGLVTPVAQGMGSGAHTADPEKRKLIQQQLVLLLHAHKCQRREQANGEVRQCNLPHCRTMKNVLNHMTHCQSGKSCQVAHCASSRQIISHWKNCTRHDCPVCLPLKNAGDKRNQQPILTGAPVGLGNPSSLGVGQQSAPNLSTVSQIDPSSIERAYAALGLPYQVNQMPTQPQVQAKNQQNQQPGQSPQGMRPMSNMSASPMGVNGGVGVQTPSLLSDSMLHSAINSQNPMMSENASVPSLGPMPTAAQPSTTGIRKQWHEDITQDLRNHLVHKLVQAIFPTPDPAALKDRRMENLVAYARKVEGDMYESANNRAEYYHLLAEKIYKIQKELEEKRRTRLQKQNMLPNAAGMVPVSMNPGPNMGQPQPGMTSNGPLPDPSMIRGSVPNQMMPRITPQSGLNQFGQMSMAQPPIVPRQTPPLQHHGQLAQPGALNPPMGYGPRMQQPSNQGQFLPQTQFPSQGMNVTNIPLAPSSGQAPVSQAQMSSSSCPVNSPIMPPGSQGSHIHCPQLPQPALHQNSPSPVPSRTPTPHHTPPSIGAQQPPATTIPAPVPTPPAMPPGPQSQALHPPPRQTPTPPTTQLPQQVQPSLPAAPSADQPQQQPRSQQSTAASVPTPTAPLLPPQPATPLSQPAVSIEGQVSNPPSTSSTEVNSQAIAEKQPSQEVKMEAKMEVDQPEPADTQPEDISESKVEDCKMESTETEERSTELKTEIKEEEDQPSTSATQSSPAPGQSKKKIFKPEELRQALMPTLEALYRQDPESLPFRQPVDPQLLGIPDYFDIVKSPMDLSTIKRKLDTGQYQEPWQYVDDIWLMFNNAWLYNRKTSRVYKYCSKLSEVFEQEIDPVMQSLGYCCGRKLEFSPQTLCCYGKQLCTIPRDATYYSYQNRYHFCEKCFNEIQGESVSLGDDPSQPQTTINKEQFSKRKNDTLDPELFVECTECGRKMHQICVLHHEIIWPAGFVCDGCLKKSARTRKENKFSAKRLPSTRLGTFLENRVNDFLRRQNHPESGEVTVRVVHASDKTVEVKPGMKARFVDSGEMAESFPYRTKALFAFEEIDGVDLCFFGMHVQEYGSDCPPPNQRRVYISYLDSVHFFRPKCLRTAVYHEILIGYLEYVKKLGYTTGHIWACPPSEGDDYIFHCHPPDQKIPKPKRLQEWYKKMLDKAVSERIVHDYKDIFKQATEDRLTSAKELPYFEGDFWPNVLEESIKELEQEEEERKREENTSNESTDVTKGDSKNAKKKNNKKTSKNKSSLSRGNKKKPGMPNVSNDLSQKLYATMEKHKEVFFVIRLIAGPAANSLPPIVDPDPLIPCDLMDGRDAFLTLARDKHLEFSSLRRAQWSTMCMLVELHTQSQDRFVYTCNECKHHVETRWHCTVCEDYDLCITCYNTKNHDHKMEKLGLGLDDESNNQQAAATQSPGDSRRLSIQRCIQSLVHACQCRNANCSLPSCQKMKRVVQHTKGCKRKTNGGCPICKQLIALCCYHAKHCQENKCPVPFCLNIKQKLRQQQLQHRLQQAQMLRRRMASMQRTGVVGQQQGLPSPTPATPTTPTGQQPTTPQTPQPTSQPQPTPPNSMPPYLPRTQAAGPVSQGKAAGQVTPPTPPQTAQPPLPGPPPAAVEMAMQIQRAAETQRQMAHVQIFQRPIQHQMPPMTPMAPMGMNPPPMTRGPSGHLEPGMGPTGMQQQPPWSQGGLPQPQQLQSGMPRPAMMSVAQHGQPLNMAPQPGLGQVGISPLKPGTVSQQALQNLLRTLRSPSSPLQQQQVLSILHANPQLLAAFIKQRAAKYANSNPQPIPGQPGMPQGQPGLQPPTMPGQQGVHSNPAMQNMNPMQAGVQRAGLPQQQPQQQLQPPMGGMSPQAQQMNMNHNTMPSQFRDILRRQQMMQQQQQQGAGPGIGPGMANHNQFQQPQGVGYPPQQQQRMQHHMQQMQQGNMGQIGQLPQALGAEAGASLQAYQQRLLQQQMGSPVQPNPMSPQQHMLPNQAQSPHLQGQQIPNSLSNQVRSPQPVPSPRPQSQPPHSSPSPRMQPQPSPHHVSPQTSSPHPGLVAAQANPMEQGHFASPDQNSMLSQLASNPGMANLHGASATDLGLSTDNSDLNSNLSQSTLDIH
Sequence of Histone acetyltransferase KAT2B (Homo sapiens) (Q92831 whole entry, looked up): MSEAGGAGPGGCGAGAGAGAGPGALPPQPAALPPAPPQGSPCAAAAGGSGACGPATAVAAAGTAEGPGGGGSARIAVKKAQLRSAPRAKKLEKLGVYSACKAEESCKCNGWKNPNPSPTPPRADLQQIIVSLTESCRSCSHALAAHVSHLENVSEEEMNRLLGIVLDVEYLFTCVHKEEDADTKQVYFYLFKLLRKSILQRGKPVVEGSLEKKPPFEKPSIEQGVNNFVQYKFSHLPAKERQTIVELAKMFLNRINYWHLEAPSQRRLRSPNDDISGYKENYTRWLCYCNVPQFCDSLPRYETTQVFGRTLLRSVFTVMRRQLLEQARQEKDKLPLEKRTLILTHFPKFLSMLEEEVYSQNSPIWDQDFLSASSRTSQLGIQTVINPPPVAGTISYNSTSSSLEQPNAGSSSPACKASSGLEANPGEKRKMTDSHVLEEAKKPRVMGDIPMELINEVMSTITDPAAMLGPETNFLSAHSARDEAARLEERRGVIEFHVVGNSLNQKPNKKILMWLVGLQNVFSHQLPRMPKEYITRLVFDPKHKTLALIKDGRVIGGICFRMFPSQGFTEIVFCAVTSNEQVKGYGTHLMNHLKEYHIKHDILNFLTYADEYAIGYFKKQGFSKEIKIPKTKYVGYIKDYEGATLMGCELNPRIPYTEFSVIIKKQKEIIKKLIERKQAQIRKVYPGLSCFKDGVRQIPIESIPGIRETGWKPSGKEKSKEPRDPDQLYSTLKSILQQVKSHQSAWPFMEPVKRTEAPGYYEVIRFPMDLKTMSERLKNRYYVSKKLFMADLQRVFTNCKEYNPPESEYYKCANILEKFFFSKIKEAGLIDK

CC(C)NCC(O)COc1cccc2ccccc12 (centres undefined) [PROPRANOLOL]
Papp B→A at 2 h, 10 µM [1]: 18.9 ×10⁻⁶ cm/s
Papp A→B at 2 h, 10 µM [2]: 28.3 ×10⁻⁶ cm/s
recovery at 2 h, 10 µM [3]: 90.7%
recovery at 2 h, 10 µM [4]: 85%

CC(=O)c1cc(C(=O)Nc2cc(C(C)O)cc(-c3cnn(C4CC4)c3)c2F)c2cc(N)ccn12 (centres undefined)
AUC(0-inf) [5]: 29.4 ng·h/mL
ΔTm [6]: 1.3 °C
AUC(0-inf) ([7]; Sprague-Dawley): 796 ng·h/mL
IC50 (CWR22R): 2930 nM
IC50 (CREB-binding protein [8]): 1.48 nM
ΔTm [9]: -0.3 °C
ΔTm [10]: -0.8 °C
ΔTm [11]: 0.5 °C
Cmax [12]: 46.8 ng/mL
ΔTm [13]: 0 °C
ΔTm [14]: -0.3 °C
half-life ([15]; Sprague-Dawley): 1.32 h
IC50 (LNCaP): 440 nM
half-life [16]: 1.97 h
ΔTm [17]: -0.3 °C
ΔTm [18]: 14.5 °C
Cmax [19]: 2680 ng/mL
ΔTm [20]: -0.6 °C
ΔTm [21]: 1.5 °C
ΔTm [22]: -0.2 °C
bioavailability [23]: 0.68%
clearance [24]: 107 mL/min/kg
ΔTm [25]: 0 °C
IC50 (LNCaP C4-2B): 2970 nM
ΔTm [26]: 0 °C
ΔTm (CREB-binding protein [27]): 14 °C
ΔTm [28]: -0.2 °C
ΔTm [29]: 5.3 °C

CC(=O)c1cc(C(=O)Nc2cc(CO)cc(-c3cnn(C4CC4)c3)c2F)c2cc(OC(=O)N(C)C)ccn12
AUC(0-inf) [5]: 9450 ng·h/mL
remaining at 0.75 h, 1 µM [30]: 44.7%
CLint scaled at 1 µM [31]: 63.3 mL/min/kg
Papp B→A at 2 h, 10 µM [1]: 2.89 ×10⁻⁶ cm/s
Papp A→B at 2 h, 10 µM [2]: 0.2 ×10⁻⁶ cm/s
ΔTm [6]: 0 °C
AUC ([7]; 24 h): 29943.87 ng·h/mL
half-life at 1 µM [32]: 0.295 h
IC50 (CWR22R): > 5000 nM
IC50 (CREB-binding protein [8]): 21.3 nM
ΔTm [9]: -0.3 °C
ΔTm [10]: -0.3 °C
efflux ratio at 2 h, 10 µM [33]: 14.2
ΔTm [11]: 0 °C
Cmax [12]: 2040 ng/mL
ΔTm [13]: -1 °C
ΔTm [14]: 0 °C
CLint scaled at 1 µM [34]: 98.2 mL/min/kg
t1/2 ([15]; iv, 5 mg/kg, 24 h): 1.6 h
CLhep predicted at 1 µM [35]: 15.6 mL/min/kg
IC50 (LNCaP): 360 nM
half-life [16]: 3.24 h
ΔTm [17]: -0.6 °C
hepatic extraction ratio at 0.75 h, 1 µM [36]: 0.64
ΔTm [18]: 11.8 °C
ΔTm [20]: 0.5 °C
ΔTm [21]: -0.5 °C
half-life at 1 µM [37]: 0.654 h
ΔTm [22]: -0.2 °C
bioavailability [23]: 6.18%
hepatic extraction ratio at 0.75 h, 1 µM (in vitro): 0.753
remaining at 0.75 h, 1 µM [38]: 16.9%
recovery at 2 h, 10 µM [3]: 95.8%
clearance [24]: 2.83 mL/min/kg
recovery at 2 h, 10 µM [4]: 107%
ΔTm [25]: -1.5 °C
IC50 (LNCaP C4-2B): > 5000 nM
ΔTm [26]: -3 °C
ΔTm (CREB-binding protein [27]): 11.5 °C
ΔTm [28]: -0.2 °C
ΔTm [29]: 1.5 °C
CLint scaled at 1 µM [39]: 35.3 mL/min/kg
